Test results as given in ChEMBL document CHEMBL4351028, “Benzoyl indoles with metabolic stability as reversal agents for ABCG2-mediated multidrug resistance” (Eur J Med Chem, 2019).
The source made the active and inactive calls. The calls are words filed in the database; no cut-off is given here.

Legend:
[1] = tested on: NCI-H460; test: Cytotoxicity against human NCI-H460 cells assessed as inhibition of cell viability incubated for 2 hrs by MTT assay; type: cell-based; details: NCI-H460, 2 h, read-out: IC50
[2] = target: T1, ABCG2 (Homo sapiens, UniProt Q9UNQ0); test: Competitive substrate activity at ABCG2 (unknown origin) expressed in High Five insect cell vesicle membrane assessed as stimulation of ATPase activity at 0.75 uM by PREDEASY ATPase assay relative to control; details: High Five insect cell vesicle membranes expressing ABCG2
T1 sequence (Q9UNQ0 whole entry): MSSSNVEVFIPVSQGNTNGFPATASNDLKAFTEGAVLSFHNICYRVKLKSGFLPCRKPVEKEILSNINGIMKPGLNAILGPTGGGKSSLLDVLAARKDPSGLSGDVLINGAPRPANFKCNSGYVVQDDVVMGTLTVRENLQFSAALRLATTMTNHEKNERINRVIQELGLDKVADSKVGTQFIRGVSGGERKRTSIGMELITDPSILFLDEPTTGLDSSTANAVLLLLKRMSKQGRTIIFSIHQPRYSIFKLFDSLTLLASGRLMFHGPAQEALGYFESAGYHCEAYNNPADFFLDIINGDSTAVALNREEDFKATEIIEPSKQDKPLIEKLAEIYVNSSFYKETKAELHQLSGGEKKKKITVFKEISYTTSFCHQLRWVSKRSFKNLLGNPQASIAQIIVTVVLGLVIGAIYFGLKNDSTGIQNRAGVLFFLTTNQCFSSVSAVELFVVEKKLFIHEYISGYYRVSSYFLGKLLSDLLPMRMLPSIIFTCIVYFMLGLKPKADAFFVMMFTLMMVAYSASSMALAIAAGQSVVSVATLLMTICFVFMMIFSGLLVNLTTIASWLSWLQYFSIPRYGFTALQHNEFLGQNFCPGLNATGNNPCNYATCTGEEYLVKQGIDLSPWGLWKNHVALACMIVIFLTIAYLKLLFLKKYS

[3] = Cytotoxicity against human S1-M1-80 cells assessed as inhibition of cell viability at 5 to 25 uM incubated for 2 hrs by MTT assay relative to control; type: cell-based; details: read-out: INH
[4] = target: T2, Broad substrate specificity ATP-binding cassette transporter ABCG2 (Homo sapiens, UniProt Q9UNQ0); test: Reversal of ABCG2 (unknown origin) expressed in HEK293 cells-mediated multidrug resistance assessed as potentiation of mitoxantrone-induced cytotoxicity at 2.5 to 5 uM pretreated for 2 hrs followed by mitoxantrone addition and measured after 44 hrs by MTT assay; type: cell-based; details: hek293, 44 h
T2 sequence (Q9UNQ0 whole entry): T1 sequence (Q9UNQ0 whole entry)

[5] = Cytotoxicity against HEK293 cells harbouring ABCG2-482-G2 mutant assessed as inhibition of cell viability at 5 to 25 uM incubated for 2 hrs by MTT assay relative to control; type: ADME, cell-based; details: human, read-out: INH
[6] = organism: Homo sapiens; test: Effect on ABCG2 internalization in human NCI-H460/MX20 cells at 5 uM incubated for 72 hrs by immunofluorescence analysis; type: functional, cell-based
[7] = Metabolic stability in human liver microsomes assessed as compound remaining at 100 uM incubated for 1 hr by HPLC analysis; type: ADME, Microsome; details: read-out: Stability
[8] = target: T2, Broad substrate specificity ATP-binding cassette transporter ABCG2; test: Competitive substrate activity at ABCG2 (unknown origin) expressed in High Five insect cell vesicle membrane assessed as stimulation of ATPase activity up to 40 uM by PREDEASY ATPase assay relative to control
[9] = target: T2, Broad substrate specificity ATP-binding cassette transporter ABCG2; test: Reversal of ABCG2-mediated multidrug resistance in human NCI-H460/MX20 cells assessed as potentiation of mitoxantrone-induced cytotoxicity by measuring inhibition of cell proliferation pretreated for 2 hrs followed by mitoxantrone addition and measured after 44 hrs by MTT assay; type: cell-based
[10] = Cytotoxicity against HEK293 cells harbouring ABCG2-482-T7 mutant assessed as inhibition of cell viability at 5 to 25 uM incubated for 2 hrs by MTT assay relative to control; type: ADME, cell-based; details: human, read-out: INH
[11] = target: T2, Broad substrate specificity ATP-binding cassette transporter ABCG2; test: Inhibition of ABCG2-mediated mitoxantrone efflux in human NCI-H460/MX20 cells assessed as increase in accumulation of [3H]MX at 5 uM incubated for 2 hrs followed by [3H]MX addition further incubated for 2 hrs by liquid scintillation counter relative to control; type: cell-based
[12] = tested on: NCI-H460; test: Cytotoxicity against human NCI-H460 cells assessed as concentration that causes inhibition of cell viability by <=20% incubated for 24 hrs by MTT assay; type: cell-based; details: nci-h460, 24 h
[13] = target: T2, Broad substrate specificity ATP-binding cassette transporter ABCG2; test: Reversal of ABCG2-mediated multidrug resistance in human NCI-H460/MX20 cells assessed as potentiation of mitoxantrone-induced cytotoxicity at 2.5 to 5 uM pretreated with compound for 2 hrs followed by mitoxantrone challenge for 44 hrs by MTT assay; type: cell-based
[14] = tested on: HEK293; test: Reversal of ABCG2 482-G2 mutant (unknown origin) expressed in HEK293 cells-mediated multidrug resistance assessed as potentiation of mitoxantrone-induced cytotoxicity at 2.5 to 5 uM pretreated for 2 hrs followed by mitoxantrone addition and measured after 44 hrs by MTT assay; type: cell-based; details: Homo sapiens
[15] = Cytotoxicity against HEK293 cells expressing wild type ABCG2-482-R2 assessed as inhibition of cell viability at 5 to 25 uM incubated for 2 hrs by MTT assay relative to control; type: ADME, cell-based; details: human, read-out: INH
[16] = Cytotoxicity against human NCI-H460/MX20 cells assessed as concentration that causes inhibition of cell viability by <=20% incubated for 24 hrs by MTT assay; type: cell-based
[17] = Cytotoxicity against human S1 cells assessed as inhibition of cell viability at 5 to 25 uM incubated for 2 hrs by MTT assay relative to control; type: cell-based; details: read-out: INH
[18] = target: T2, Broad substrate specificity ATP-binding cassette transporter ABCG2; test: Reversal of ABCG2-mediated multidrug resistance in human S1-M1-80 cells assessed as potentiation of doxorubicin-induced cytotoxicity at 5 uM pretreated with compound for 2 hrs followed by doxorubicin challenge for 44 hrs by MTT assay; type: cell-based
[19] = organism: Homo sapiens; test: Effect on ABCG2 expression in human NCI-H460/MX20 cells at 5 uM incubated up to 72 hrs by Western blot analysis; type: functional, cell-based
[20] = target: T2, Broad substrate specificity ATP-binding cassette transporter ABCG2; test: Competitive substrate activity at ABCG2 (unknown origin) expressed in High Five insect cell vesicle membrane assessed as stimulation of ATPase activity by PREDEASY ATPase assay
[21] = Cytotoxicity against HEK293 cells transfected with pcDNA3.1 assessed as inhibition of cell viability at 5 to 25 uM incubated for 2 by MTT assay relative to control; type: cell-based; details: human, read-out: INH
[22] = Cytotoxicity against human NCI-H460/MX20 cells assessed as inhibition of cell viability incubated for 2 hrs by MTT assay; type: cell-based; details: NCI-H460/MX20, 2 h
[23] = Cytotoxicity against human NCI-H460/MX20 cells assessed as inhibition of cell viability at 5 to 25 uM incubated for 2 hrs by MTT assay relative to control; type: cell-based; details: read-out: INH
[24] = Cytotoxicity against human NCI-H460 cells assessed as inhibition of cell viability at 5 to 25 uM incubated for 2 hrs by MTT assay relative to control; type: cell-based; details: read-out: INH
[25] = target: T2, Broad substrate specificity ATP-binding cassette transporter ABCG2; test: Reversal of ABCG2-mediated multidrug resistance in human NCI-H460/MX20 cells assessed as cisplatin-induced cytotoxicity at 5 uM pretreated with compound for 2 hrs followed by cisplatin challenge for 44 hrs by MTT assay; type: cell-based
[26] = target: T2, Broad substrate specificity ATP-binding cassette transporter ABCG2; test: Reversal of ABCG2-mediated multidrug resistance in human S1-M1-80 cells assessed as potentiation of mitoxantrone-induced cytotoxicity at 5 uM pretreated with compound for 2 hrs followed by mitoxantrone challenge for 44 hrs by MTT assay; type: cell-based
[27] = tested on: HEK293; test: Reversal of ABCG2 482-T7 mutant (unknown origin) expressed in HEK293 cells-mediated multidrug resistance assessed as potentiation of mitoxantrone-induced cytotoxicity at 2.5 to 5 uM pretreated for 2 hrs followed by mitoxantrone addition and measured after 44 hrs by MTT assay; type: cell-based; details: Homo sapiens
[28] = target: T2, Broad substrate specificity ATP-binding cassette transporter ABCG2; test: Reversal of ABCG2-mediated multidrug resistance in human NCI-H460/MX20 cells assessed as potentiation of mitoxantrone-induced cytotoxicity by measuring inhibition of cell proliferation at 10 uM pretreated for 2 hrs followed by mitoxantrone addition and measured after 44 hrs by MTT assay (reference value: 24 +/- 3%); type: cell-based

Structure (SMILES): COc1ccc(C(=O)c2c[nH]c3ccc(OC)cc23)cc1
- IC50 [1]: > 100 µM
- Emax at 0.75 µM [2]: 50%
- cytotoxicity at 2 h, up to 25 µM [3]: < 20%
- Activity [4]: Active
- cytotoxicity at 2 h, up to 25 µM [5]: < 20%
- Activity [6]: inactive
- remaining at 1 h, 100 µM [7]: 78%
- fold change (FC) [8]: 2.03
- inhibition (INH) [9]: Dose-dependent effect
- cytotoxicity at 2 h, up to 25 µM [10]: < 20%
- fold change (FC) [11]: 2.7
- Activity [12]: 10 µM
- Activity [13]: Active
- Activity [14]: Active
- cytotoxicity at 2 h, up to 25 µM [15]: < 20%
- Activity [16]: 10 µM
- cytotoxicity at 2 h, up to 25 µM [17]: < 20%
- Activity [18]: Active
- Activity [19]: inactive
- Activity [20]: Dose-dependent effect
- cytotoxicity at up to 25 µM [21]: < 20%
- IC50 [22]: 66.9 µM
- cytotoxicity at 2 h, up to 25 µM [23]: < 20%
- cytotoxicity at 2 h, up to 25 µM [24]: < 20%
- Activity [25]: Not Active
- Activity [26]: Active
- Activity [27]: Active
- inhibition at 10 µM [28]: > 87%
